Reference: patent US8865714B2, “Piperazine compound capable of inhibiting prostaglandin D synthase” (Taiho Pharmaceutical Co., Ltd., priority 2009, dated 2014)
Where two headings read alike, the source gives them in different places.

Target: human H-PGDS (Homo sapiens (Human), UniProt O60760)
Assay: Hematopoietic prostaglandin D synthase (H-PGDS) inhibiting action
Assay type: biochemical
Conditions: for H-PGDS inhibition rate (%) / inhibition at 0.1 µM: compound at 0.1 μM, relative to the control group; for inhibition at 0.1 µM: read-out: H-PGDS inhibition rate (%)
Experimental: More specifically, the reaction mixture (49 μL) containing 100 mM Tris-HCl (pH 8.0), 1 mM reduced glutathione, 0.1 mg/mL γ-globulin, and human H-PGDS (q.s.), and a compound (final concentration: 0.01-100 μM) was preincubated at 25° C. for 5 minutes. Note that a DMSO solution (final concentration: 1%) was added to the solvent control group. Subsequently, 1 μL of [14C] prostaglandin H2 (final concentration: 10 μM) was added to start the reaction. One minute after the start of the reaction, 250 μL of a reaction stopper solution (diethylether/methanol/1 M citric acid (30/4/1) at a temperature of −20° C. was added to stop the reaction. After the reaction was stopped, 50 μL of the upper layer portion (organic solvent phase) was applied to a TLC plate and developed at −20° C. for 45 minutes (developing solvent: diethylether/methanol/acetic acid (90/2/1)). After drying the TLC plate, the TLC plate was exposed to an imaging plate for 1 to 24 hours, and the radioactivity corresponding to prostaglandin D2 (PGD2) was analyzed using an image analyzer (produced by Fujifilm Corporation).

[1] = human H-PGDS, [14C] prostaglandin H2 10 μM
[2] = human H-PGDS, [14C] prostaglandin H2 10 μM, read-out: IC50

Chain of human H-PGDS (O60760 whole entry): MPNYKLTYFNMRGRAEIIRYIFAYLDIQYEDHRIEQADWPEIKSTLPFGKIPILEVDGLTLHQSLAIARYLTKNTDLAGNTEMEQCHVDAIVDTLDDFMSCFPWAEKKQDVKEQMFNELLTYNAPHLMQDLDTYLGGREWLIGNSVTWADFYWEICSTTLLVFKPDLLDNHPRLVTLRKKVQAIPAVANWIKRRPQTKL

Compound | inhibition at 0.1 µM [1] [%] | H-PGDS inhibition rate (%) [1] [%] | IC50 [2] [nM] | IC50 [nM]
4-((1-ethylpyrrol-2-yl)-carbonyl)-N-(4-(4-morpholin-1-yl-carbonylpiperidin-1-yl)-phenyl)-1-piperazinecarboxamide [Example 13] | – | 51.8 | 91 | –
O=C(Nc1ccc(C(F)(F)F)cc1)N1CCN(C(=O)c2cccc(F)n2)CC1 [Reference Example 18, 4-(6-fluoropyridine-2-carbonyl)piperazine-1-carboxylic acid-(4-trifluoromethylphenyl)amide] | – | – | – | > 1000
O=C(Nc1ccc(N2CCC(C(=O)N3CCOCC3)CC2)cc1)N1CCN(C(=O)C2CCCC2)CC1 [Reference Example 10, 4-(cyclopentylcarbonyl)-N-(4-(4-morpholin-1-yl-carbonylpiperidin-1-yl)-phenyl)-1-piperazinecarboxamide] | – | −2.2 | > 1000 | –
O=C(Nc1ccc(N2CCC(C(=O)N3CCOCC3)CC2)cc1)N1CCN(C(=O)c2ccsc2)CC1 [Reference Example 5, 4-((thiophen-3-yl)-carbonyl)-N-(4-(4-morpholin-1-yl-carbonylpiperidin-1-yl)-phenyl)-1-piperazinecarboxamide] | – | 9.4 | 732 | –
O=C(Nc1ccc(N2CCC(C(=O)N3CCOCC3)CC2)cc1)N1CCN(C(=O)c2ccco2)CC1 [Reference Example 6, 4-((furan-2-yl)-carbonyl)-N-(4-(4-morpholin-1-yl-carbonylpiperidin-1-yl)-phenyl)-1-piperazinecarboxamide] | – | −2.7 | > 1000 | –
Cn1ccnc1C(=O)N1CCN(C(=O)Nc2ccc(N3CCC(C(=O)N4CCOCC4)CC3)cc2)CC1 [Reference Example 9, 4-((1-methylimidazol-2-yl)-carbonyl)-N-(4-(4-morpholin-1-yl-carbonylpiperidin-1-yl)-phenyl)-1-piperazinecarboxamide] | – | −2.8 | > 1000 | –
4-((1-methylindol-2-yl)-carbonyl)-N-(4-(4-morpholin-1-yl-carbonylpiperidin-1-yl)-phenyl)-1-piperazinecarboxamide [Reference Example 12] | – | −0.4 | > 1000 | –
4-((1-methylpyrrol-2-yl)-carbonyl)-N-(4-(4-(3-(1,2,4-triazol-1-yl-propyl)piperidin-1-yl)-phenyl)-1-piperazinecarboxamide [Example 11] | – | 71.3 | 46 | –
4-((((1-methylpyrrol-2-yl)-carbonyl)-1-piperazinyl)carbonyl)amino-4-phenylpiperidine-4-carboxylic acid [Example 2] | – | 53.7 | 86 | –
O=C(Nc1ccc(N2CCC(C(=O)N3CCOCC3)CC2)cc1)N1CCN(C(=O)c2cccs2)CC1 [Reference Example 4, 4-((thiophen-2-yl)-carbonyl)-N-(4-(4-morpholin-1-yl-carbonylpiperidin-1-yl)-phenyl)-1-piperazinecarboxamide] | – | 18.0 | 340 | –
O=C(Nc1ccc(N2CCC(C(=O)N3CCOCC3)CC2)cc1)N1CCN(C(=O)c2ccccc2)CC1 [Reference Example 11, 4-(benzoyl)-N-(4-(4-morpholin-1-yl-carbonylpiperidin-1-yl)-phenyl)-1-piperazinecarboxamide] | – | 15.8 | 437 | –
O=C(Nc1ccc(N2CCC(C(=O)N3CCOCC3)CC2)cc1)N1CCN(C(=O)c2ccoc2)CC1 [Reference Example 7, 4-((furan-3-yl)-carbonyl)-N-(4-(4-morpholin-1-yl-carbonylpiperidin-1-yl)-phenyl)-1-piperazinecarboxamide] | – | −4.2 | > 1000 | –
O=C(Nc1ccc(N2CCC(C(=O)N3CCOCC3)CC2)cc1)N1CCN(C(=O)c2ccno2)CC1 [Reference Example 8, 4-((isoxazol-5-yl)-carbonyl)-N-(4-(4-morpholin-1-yl-carbonylpiperidin-1-yl)-phenyl)-1-piperazinecarboxamide] | – | −6.6 | > 1000 | –
Cn1ccc(C(=O)N2CCN(C(=O)Nc3ccc(N4CCC(C(=O)N5CCOCC5)CC4)cc3)CC2)c1 [Reference Example 3, 4-((1-methylpyrrol-3-yl)-carbonyl)-N-(4-(4-morpholin-1-yl-carbonylpiperidin-1-yl)-phenyl)-1-piperazinecarboxamide] | – | −4.8 | > 1000 | –

The next lines start with results.

inhibition at 0.1 µM [1] [%] | Compound | H-PGDS inhibition rate (%) [1] [%] | IC50 [2] [nM] | IC50 [nM]
61.5 | Cn1cccc1C(=O)N1CCN(C(=O)Nc2ccc(N3CCC(CN4CCOCC4)CC3)cc2)CC1 [Example 4, 4-((1-methylpyrrol-2-yl)-carbonyl)-N-(4-(4-morpholinomethylpiperidin-1-yl)-phenyl)-1-piperazinecarboxamide] | – | – | –
55.5 | Cn1cccc1C(=O)N1CCN(C(=O)Nc2ccc(N3CCC(CCn4cncn4)C3)cc2)CC1 (stereo not drawn) [Example 5, 4-((1-methylpyrrol-2-yl)-carbonyl)-N-(4-(3-(2-(1,2,4-triazol-1-yl)-ethyl)pyrrolidin-1-yl)-phenyl)-1-piperazinecarboxamide] | – | – | –
61.3 | CN1CCN(C(=O)C2CCN(c3ccc(NC(=O)N4CCN(C(=O)c5cccn5C)CC4)cc3)CC2)CC1 [Example 15, 4-((1-methylpyrrol-2-yl)-carbonyl)-N-(4-(4-(4-methylpiperazin-1-yl-carbonyl)piperidin-1-yl)-phenyl)-1-piperazinecarboxamide] | – | – | –
72.7 | Cn1cccc1C(=O)N1CCN(C(=O)Nc2ccc(N3CCC(CCCn4ccnn4)CC3)cc2)CC1 [Example 12, 4-((1-methylpyrrol-2-yl)-carbonyl)-N-(4-(4-(3-(1,2,3-triazol-1-yl)-propyl)piperidin-1-yl)-phenyl)-1-piperazinecarboxamide] | – | – | –
61.7 | Cn1cccc1C(=O)N1CCN(C(=O)Nc2ccc(N3CCC(C(=O)NCc4cccnc4)CC3)cc2)CC1 [Example 17, 4-((1-methylpyrrol-2-yl)-carbonyl)-N-(4-(4-(pyridin-3-ylmethylcarbamoyl)piperidin-1-yl)-phenyl)-1-piperazinecarboxamide] | – | – | –
54.8 | Cc1nc(C)n(CCC2CCN(c3ccc(NC(=O)N4CCN(C(=O)c5cccn5C)CC4)cc3)CC2)n1 [Example 9, 4-((1-methylpyrrol-2-yl)-carbonyl)-N-(4-(4-(2-(3,5-dimethyl-1,2,4-triazol-1-yl)-ethyl)piperidin-1-yl)-phenyl)-1-piperazinecarboxamide] | – | – | –
58.9 | Cn1cccc1C(=O)N1CCN(C(=O)Nc2ccc(N3CCC(CCn4cncn4)CC3)cc2)CC1 [Example 8, 4-((1-methylpyrrol-2-yl)-carbonyl)-N-(4-(4-(2-(1,2,4-triazol-1-yl)-ethyl)piperidin-1-yl)-phenyl)-1-piperazinecarboxamide] | – | 62 | –
68.3 | Cn1cccc1C(=O)N1CCN(C(=O)Nc2ccc(N3CCC(CCN4CCOCC4)CC3)cc2)CC1 [Example 6, 4-((1-methylpyrrol-2-yl)-carbonyl)-N-(4-(4-morpholinoethylpiperidin-1-yl)-phenyl)-1-piperazinecarboxamide] | – | – | –
61.1 | Cn1cccc1C(=O)N1CCN(C(=O)Nc2ccc(N3CCC(C(=O)NCCN4CCOCC4)CC3)cc2)CC1 [Example 16, 4-((1-methylpyrrol-2-yl)-carbonyl)-N-(4-(4-(2-morpholinoethylcarbamoyl)piperidin-1-yl)-phenyl)-1-piperazinecarboxamide] | – | – | –
74.3 | Cn1cccc1C(=O)N1CCN(C(=O)Nc2ccc(N3CCC(CCn4cccn4)CC3)cc2)CC1 [Example 10, 4-((1-methylpyrrol-2-yl)-carbonyl)-N-(4-(4-(2-(pyrazol-1-yl)-ethyl)piperidin-1-yl)-phenyl)-1-piperazinecarboxamide] | – | – | –
62.2 | Cn1cccc1C(=O)N1CCN(C(=O)Nc2ccc(N3CCC(O)CC3)cc2)CC1 [Example 1, N-(4-(4-hydroxypiperidin-1-yl)-phenyl)-4-((1-methylpyrrol-2-yl)-carbonyl)-1-piperazinecarboxamide] | – | 58 | –
73.6 | Cn1cccc1C(=O)N1CCN(C(=O)Nc2ccc(N3CCC(C(=O)N4CCCCC4)CC3)cc2)CC1 [Example 14, 4-((1-methylpyrrol-2-yl)-carbonyl)-N-(4-(4-piperidin-1-yl-carbonylpiperidin-1-yl)-phenyl)-1-piperazinecarboxamide] | – | – | –
66.7 | Cn1cccc1C(=O)N1CCN(C(=O)Nc2ccc(N3CCC(CCn4ccnn4)CC3)cc2)CC1 [Example 7, 4-((1-methylpyrrol-2-yl)-carbonyl)-N-(4-(4-(2-(1,2,3-triazol-1-yl)-ethyl)piperidin-1-yl)-phenyl)-1-piperazinecarboxamide] | – | – | –
